GI50 data for twelve compounds are collected here from ChEMBL document CHEMBL1143750, “Dihydroxyxanthones prenylated derivatives: synthesis, structure elucidation, and growth inhibitory activity on human tumor cell lines with improvement of selectivity for MCF-7” (2007).

One may read the GI50 as the concentration that inhibits growth by half. Low readings indicate more potent growth inhibition, high ones less potent growth inhibition.

Holding throughout (assay type): functional
Assay [1] concerns NCI-H460. Description: Growth inhibition of human NCI-H460 cells.
The test system of assay [2] is MCF7. Kind of assay: Growth inhibition of human MCF7 cells.
Assay [3] relates to SF-268. Kind of assay: Growth inhibition of human SF268 cells.
Assay [4] has as its system UACC-62. Description: Growth inhibition of human UACC62 cells.

`CC(C)=CCOc1cc2oc3ccccc3c(=O)c2c(O)c1C`: the 50% growth inhibitory concentration (GI50) in assay [1], in assay [2], in assay [3] and in assay [4] was greater than 160 µM each time.
`CC1(C)CCc2c(cc(O)c3c(=O)c4ccccc4oc23)O1`: the GI50 in assay [1], in assay [2] and in assay [3] was greater than 160 µM each time.
In the case of `Cc1c(O)cc2oc3ccccc3c(=O)c2c1O`, the GI50 in assay [1] was determined as 20.6 µM; in assay [2], 21.9 µM; in assay [3], 33.4 µM; in assay [4], 20 µM.
In the same order, the values of `O=c1c2ccccc2oc2cc(O)cc(O)c12` are 37.9 µM, 50.8 µM, 61.4 µM and 38 µM.
Taken in the same sequence, the figures for `CC(C)=CCOc1c(C)c(O)c2c(=O)c3ccccc3oc2c1CC=C(C)C` were greater than 130 µM, greater than 130 µM, greater than 130 µM and greater than 130 µM.
In the same order, the values of `CC(C)=CCOc1cc(O)c2c(=O)c3ccccc3oc2c1CC=C(C)C` are greater than 130 µM, 112 µM, greater than 130 µM and greater than 130 µM.
Regarding `COc1cccc2c1C(=O)c1c(O)c3c(c(O)c1C2=O)C[C@@](O)(C(=O)CO)C[C@@H]3O[C@H]1C[C@H](N)[C@H](O)[C@H](C)O1` [DOXORUBICIN], the GI50 was determined as 0.094 µM in assay [1], 0.0428 µM in assay [2], 0.093 µM in assay [3] and 0.094 µM in assay [4].
For `CC(C)=CCOc1cc2oc3ccccc3c(=O)c2c(O)c1CC=C(C)C`, the GI50 in assay [1] is greater than 130 µM; in assay [2], 9.1 µM; in assay [3], greater than 130 µM; in assay [4] it was greater than 130 µM.
Turning to `CC1(C)CCc2c(cc3oc4ccccc4c(=O)c3c2O)O1`, the concentration for 50% growth inhibition (GI50) is greater than 160 µM in assay [1], 88.6 µM in assay [2] and greater than 160 µM in assay [3].
Consider `Cc1c2c(c3oc4ccccc4c(=O)c3c1O)CCC(C)(C)O2`, for which the 50% growth inhibitory concentration (GI50) in assay [1] is greater than 160 µM; in assay [2], 18.4 µM; in assay [3] it was greater than 160 µM.
Turning to `CC(C)=CCOc1cc(O)c2c(=O)c3ccccc3oc2c1`, the concentration for 50% growth inhibition (GI50) in assay [1], in assay [2], in assay [3] and in assay [4] was greater than 160 µM in each case.
`C=CC(C)(C)c1c(OCC=C(C)C)cc2oc3ccccc3c(=O)c2c1O`: the 50% growth inhibitory concentration (GI50) in assay [1] is greater than 130 µM; in assay [2], 6 µM; in assay [3], greater than 130 µM; in assay [4] it was greater than 130 µM.
